In US11192878B2, “Piperidine-2,6-dione derivative and use thereof” (KOREA RESEARCH INSTITUTE OF CHEMICAL TECHNOLOGY, priority 2017, dated 2021):
Where a name gives a salt, the structure may show the parent alone.

tested on: NCI-H929 cells; assay: Cytotoxicity experiment (WST-1); format: cell-based; conditions: Homo sapiens, 72 hours, WST-1, absorbance 450 nm
Experimental: In order to confirm the effect of the compound of the present disclosure on cancer cells and normal cells, the cytotoxicity experiment was conducted as follows.
After seeding NCI-H929 cells on a 96-well plate so as to be 10,000 cells per each well, each compound was treated in a predetermined concentration. In 72 hours, WST-1 reagent was added, and in 1 hour, the absorbance was measured at 450 nm using spectramax spectrophotometer to measure the degree of cell death.

| Structure (SMILES) | IC50 [µM] |
| --- | --- |
| Nc1cccc2nnn(C3CCC(=O)NC3=O)c(=O)c12 (stereo not drawn) [Chemical formula 7, 3-(5-amino-4-oxobenzo[d][1,2,3]triazin-3(4H)-yl)piperidine-2,6-dione] | < 1 |
| O=C1CCC(n2nnc3cccc(F)c3c2=O)C(=O)N1 (stereo not drawn) [Chemical formula 8, 3-(5-fluoro-4-oxobenzo[d][1,2,3]triazin-3(4H)-yl)piperidine-2,6-dione] | 1 to 10 |
| O=C1CCC(n2nnc3cccc([N+](=O)[O-])c3c2=O)C(=O)N1 (stereo not drawn) [Chemical formula 9, 3-(5-nitro-4-oxobenzo[d][1,2,3]triazin-3(4H)-yl)piperidine-2,6-dione] | 10 to 50 |
| Cc1cccc2nnn(C3CCC(=O)NC3=O)c(=O)c12 (stereo not drawn) [Chemical formula 11, 3-(5-methyl-4-oxobenzo[d][1,2,3]triazin-3(4H)-yl)piperidine-2,6-dione] | 1 to 10 |
| O=C1CCC(n2nnc3ccc(Cl)cc3c2=O)C(=O)N1 (stereo not drawn) [Chemical formula 12, 3-(6-chloro-4-oxobenzo[d][1,2,3]triazin-3(4H)-yl)piperidine-2,6-dione] | 10 to 50 |
| COc1ccc2nnn(C3CCC(=O)NC3=O)c(=O)c2c1 (stereo not drawn) [Chemical formula 19, 3-(6-methoxy-4-oxobenzo[d][1,2,3]triazin-3(4H)-yl)piperidine-2,6-dione] | 10 to 50 |
| CC(=O)Nc1cccc2nnn(C3CCC(=O)NC3=O)c(=O)c12 (stereo not drawn) [Chemical formula 20, N-(3-(2,6-dioxopiperidin-3-yl)-4-oxo-3,4-dihydrobenzo[d][1,2,3]triazin-5-yl)acetamide] | 10 to 50 |
| O=C1CCC(n2nnc3c([N+](=O)[O-])cccc3c2=O)C(=O)N1 (stereo not drawn) [Chemical formula 21, 3-(8-nitro-4-oxobenzo[d][1,2,3]triazin-3(4H)-yl)piperidine-2,6-dione] | 10 to 50 |
| CC(=O)Nc1ccc2nnn(C3CCC(=O)NC3=O)c(=O)c2c1 (stereo not drawn) [Chemical formula 23, N-(3-(2,6-dioxopiperidin-3-yl)-4-oxo-3,4-dihydrobenzo[d][1,2,3]triazin-6-yl)acetamide] | 10 to 50 |
| Nc1cccc2c(=O)n(C3CCC(=O)NC3=O)ccc12 (stereo not drawn) [Chemical formula 24, 3-(5-amino-1-oxoisoquinolin-2(1H)-yl)piperidine-2,6-dione] | 10 to 50 |
| O=C1CCC(n2nnc3ccccc3c2=O)C(=O)N1 (stereo not drawn) [Chemical formula 25, 3-(4-oxobenzo[d][1,2,3]triazin-3(4H)-yl)piperidine-2,6-dione] | 1 to 10 |
| O=C1CCC(n2nnc3cc([N+](=O)[O-])ccc3c2=O)C(=O)N1 (stereo not drawn) [Chemical formula 26, 3-(7-nitro-4-oxobenzo[d][1,2,3]triazin-3(4H)-yl)piperidine-2,6-dione] | 10 to 50 |
| O=C1CCC(n2nnc3ccc([N+](=O)[O-])cc3c2=O)C(=O)N1 (stereo not drawn) [Chemical formula 27, 3-(6-nitro-4-oxobenzo[d][1,2,3]triazin-3(4H)-yl)piperidine-2,6-dione] | 10 to 50 |
| O=C1CCC(n2nnc3cccc(C(=O)O)c3c2=O)C(=O)N1 (stereo not drawn) [Chemical formula 29, 3-(2,6-dioxopiperidin-3-yl)-4-oxo-3,4-dihydrobenzo[d][1,2,3]triazin-5-carboxylic acid] | 10 to 50 |
| CC1(n2nnc3cccc(N)c3c2=O)CCC(=O)NC1=O (stereo not drawn) [Chemical formula 30, 3-(5-amino-4-oxobenzo[d][1,2,3]triazin-3(4H)-yl)-3-methylpiperidine-2,6-dione] | 10 to 50 |
| Nc1cccc2ccn(C3CCC(=O)NC3=O)c(=O)c12 (stereo not drawn) [Chemical formula 31, 3-(8-amino-1-oxoisoquinolin-2(1H)-yl)piperidine-2,6-dione] | 10 to 50 |
| Cc1ccc(NC(=O)NCc2ccc3c(=O)n(C4CCC(=O)NC4=O)nnc3c2)cc1Cl (stereo not drawn) [Chemical formula 37, 1-(3-chloro-4-methylphenyl)-3-((3-(2,6-dioxopiperidin-3-yl)-4-oxo-3,4-dihydrobenzo[d][1,2,3]triazin-7-yl)methyl)urea] | < 1 |
| Cc1ccc(NC(=O)NCc2ccc3nnn(C4CCC(=O)NC4=O)c(=O)c3c2)cc1Cl (stereo not drawn) [Chemical formula 38, 1-(3-chloro-4-methylphenyl)-3-((3-(2,6-dioxopiperidin-3-yl)-4-oxo-3,4-dihydrobenzo[d][1,2,3]triazin-6-yl)methyl)urea] | < 1 |
| O=C1CCC(n2nnc3cccc(NC(=O)c4ccccc4)c3c2=O)C(=O)N1 (stereo not drawn) [Chemical formula 56, N-(3-(2,6-dioxopiperidin-3-yl)-4-oxo-3,4-dihydrobenzo[d][1,2,3]triazin-5-yl)benzamide] | 10 to 50 |
| O=C1CCC(n2nnc3cccc(O)c3c2=O)C(=O)N1 (stereo not drawn) [Chemical formula 57, 3-(5-hydroxy-4-oxobenzo[d][1,2,3]triazin-3(4H)-yl)piperidine-2,6-dione] | < 1 |
| CC(C)(C)C(=O)OCN1C(=O)CCC(n2nnc3cccc(N)c3c2=O)C1=O (stereo not drawn) [Chemical formula 58, (3-(5-amino-4-oxobenzo[d][1,2,3]triazin-3(4H)-yl)-2,6-dioxopiperidin-1-yl)methyl pivalate] | < 1 |
| Nc1cccc2nnn(C3CCC(=O)N(COC(=O)c4ccccc4)C3=O)c(=O)c12 (stereo not drawn) [Chemical formula 59, (3-(5-amino-4-oxobenzo[d][1,2,3]triazin-3(4H)-yl)-2,6-dioxopiperidin-1-yl)methyl benzoate] | < 1 |
| Nc1cccc2nnn(C3CCC(=O)N(COC(=O)C4CCNCC4)C3=O)c(=O)c12 (stereo not drawn) [Chemical formula 60, (3-(5-amino-4-oxobenzo[d][1,2,3]triazin-3(4H)-yl)-2,6-dioxopiperidin-1-yl)methyl piperidine-4-carboxylate hydrochloride] | < 1 |
| Nc1cccc2nnn(C3CCC(=O)N(COC(=O)[C@H]4CCCN4)C3=O)c(=O)c12 (stereo partly drawn) [Chemical formula 61, (3-(5-amino-4-oxobenzo[d][1,2,3]triazin-3(4H)-yl)-2,6-dioxopiperidin-1-yl)methyl D-prolinate hydrochloride] | < 1 |
| CC[C@H](C)[C@H](N)C(=O)OCN1C(=O)CCC(n2nnc3cccc(N)c3c2=O)C1=O (stereo partly drawn) [Chemical formula 62, (3-(5-amino-4-oxobenzo[d][1,2,3]triazin-3(4H)-yl)-2,6-dioxopiperidin-1-yl)methyl L-isoleucinate hydrochloride] | < 1 |
| CCCC(=O)OCN1C(=O)CCC(n2nnc3cccc(N)c3c2=O)C1=O (stereo not drawn) [Chemical formula 63, (3-(5-amino-4-oxobenzo[d][1,2,3]triazin-3(4H)-yl)-2,6-dioxopiperidin-1-yl)methyl butyrate] | < 1 |
| Nc1ccc2nnn(C3CCC(=O)NC3=O)c(=O)c2c1 (stereo not drawn) [Chemical formula 65, 3-(6-amino-4-oxobenzo[d][1,2,3]triazin-3(4H)-yl)piperidine-2,6-dione] | 10 to 50 |
